In the experiment the test system is HCV replicon. Put plainly: HCV replicon replication assay (NPT level by captured ELISA). The class given is cell-based. As to conditions: Hepatitis C virus, 72 h; Huh-7 HCV replicon-containing cells, three days incubation; read-out: Activity (inhibition of HCV replicon replication). As for the experimental part: Compounds claimed herein are tested for the ability to inhibit viral replication of the Hepatitis C replicon in cultured cells in which the HCV replicon construct has been incorporated. The HCV replicon system was described by Bartenschlager, et. al (Science, 285, pp. 110-113 (1999)). The replicon system is predictive of in vivo anti-HCV activity; compounds that are active in humans uniformly evidence activity in the replicon assay.
In this assay HCV replicon containing cells are treated with different concentrations of the test compound to ascertain the ability of the test compound to suppress replication of the HCV replicon. As a positive control, HCV replicon-containing cells are treated with different concentrations of interferon alpha, a known inhibitor of HCV replication. The replicon assay system includes Neomycin Phosphotransferase (NPT) as a component of the replicon itself in order to detect the transcription of replicon gene products in the host cell. Cells in which the HCV replicon is actively replicating have high levels of NPT; the level of NPT is proportional to HCV replication. […] The NPT level of each sample is measured using a captured ELISA.
A protocol for testing compounds for the ability to inhibit viral replication of the Hepatitis C replicon cultured cells in which the replicon construct has been incorporated, follows.
The HCV replicon contains, 5′-3′, the HCV-IRES, the neomycin phosphotransferase (neo) gene, the IRES of encephalomyocarditis virus, which directs translation of HCV sequences NS3 to NS5B, and the 3′-NTR. The sequence of the HCV replicon has been deposited in GenBank (Accession no. AJ242652).
The replicon is transfected into Huh-7 cells using standard methods such as electroporation.
The equipment and materials include, but are not limited to, Huh-7 HCV replicon-containing cells, maintenance media (DMEM (Dulbecco's modified Eagle media) supplemented with 10% FBS, L-glutamine, non-essential amino acids, penicillin (100 units/ml), streptomycin (100 micrograms/ml), and 500 micrograms/ml of Geneticin (G418), screening media (DMEM supplemented with 10% FBS, L-glutamine, non-essential amino acids, penicillin (100 units/ml) and streptomycin (100 micrograms/ml)), 96 well tissue culture plates (flat bottom), 96 well plates (U bottom for drug dilution), Interferon alpha for positive control, fixation reagent (such as methanol: acetone), primary antibody (rabbit anti-NPTII), secondary antibody: Eu—N1 1, and enhancement solution.
HCV replicon-containing cells are rinsed with once PBS once; 2 mls of trypsin are then added. Cells are incubated at 37° C. in a 5% CO2 incubator for 3-5 minutes. 10 mls of complete medium is added to stop the reaction. Cells are blown gently, put into a 15 ml tube, and spun at 1200 rpm for four minutes. The trypsin/medium solution is removed and 5 mls of medium (500 ml DMEM (high glucose)) from BRL catalog #12430-054; 50 mls 10% FBS, 5% Geneticin G418 (50 mg/ml, BRL catalog #10131-035), 5 ml MEM non-essential amino acids (100×BRL #11140-050) and 5 ml pen-strep (BRL #15140-148) is added. The cells and media are mixed carefully
Cells are plated with screening medium (500 ml DMEM (BRL #21063-029), 50 ml FBS (BRL #10082-147) and 5 ml MEM non-essential amino acid (BRL #11140-050) at 6000-7500 cells/100 μl/well of 96 well plate (6-7.5×10^5 cells/10 ml/plate). Plates are placed into 37° C. 5% CO2 incubator overnight.
The following morning, drugs (test compounds or interferon alpha) are diluted in 96 well U bottom plates with media or DMSO/media, depending on the final concentration chosen for screening. Generally for 6 concentrations of each test compounds ranging from 10 micromolar to 0.03 micromolar are applied. 100 μl of the test compound dilution is placed in wells of the 96 well plate containing the HCV replicon cells. Media without drug is added to some wells as a negative controls. DMSO is known to affect cell growth. […]
In general terms: Replicon systems follow genome replication, usually without infectious particles.

`Cc1ccc(OCCCCc2ccc(Nc3nc(-c4cccnc4)cs3)cc2C(F)(F)F)cc1` [Cmp 117, 4-(pyridin-3-yl)-N-(4-(4-(p-tolyloxy)butyl)-3-(trifluoromethyl)phenyl)thiazol-2-amine]: the EC50 is below 1 µM.

On to `CCCCCCCC(=O)c1ccc(Nc2nc(-c3cccnc3)cs2)cc1` [Cmp 111, 1-(4-(4-(pyridin-3-yl)thiazol-2-ylamino)phenyl)octan-1-one], for which the EC50 was below 1 µM.

On to `Cc1ccc(OCCCc2ccc(Nc3nc(-c4cccnc4)cs3)cc2C(F)(F)F)cc1` [Cmp 118, 4-(pyridin-3-yl)-N-(4-(3-(p-tolyloxy)propyl)-3-(trifluoromethyl)phenyl)thiazol-2-amine], for which the EC50 was below 1 µM.

Take `Cc1ccc(CCCCCc2ccc(Nc3nc(-c4cccnc4)cs3)cc2C(F)(F)F)cc1` [Cmp 73, 4-(pyridin-3-yl)-N-(4-(5-p-tolylpentyl)-3-(trifluoromethyl)phenyl)thiazol-2-amine]: the EC50 is below 1 µM.

On to `COc1ncc(-c2nc(Nc3ccc(C)c(OCC4CCCCC4)c3)sc2F)cn1` [Cmp 63, N-(3-(cyclohexylmethoxy)-4-methylphenyl)-5-fluoro-4-(2-methoxypyrimidin-5-yl)thiazol-2-amine], for which the EC50 is below 1 µM.

Take `CCCCCc1nc2cc(Nc3nc(-c4cnc(OC)nc4)cs3)ccc2o1` [Cmp 55, N-(4-(2-methoxypyrimidin-5-yl)thiazol-2-yl)-2-pentylbenzo[d]oxazol-5-amine]: the EC50 was below 1 µM.

Turning to `CCCCCOc1cc(Nc2nc(-c3cccnc3)c(F)s2)ccc1C` [Cmp 29], the EC50 was below 1 µM.

Take `CCCCCCCC(=O)c1ccc(Nc2nc(-c3cccnc3)c(F)s2)cc1C(F)(F)F` [Cmp 215, 1-(4-(5-fluoro-4-(pyridin-3-yl)thiazol-2-ylamino)-2-(trifluoromethyl)phenyl)octan-1-one]: the EC50 was below 1 µM.

`CCCCCCc1ccc(Nc2nc(-c3cccnc3)cs2)cc1C(F)(F)F` [Cmp 105, N-(4-hexyl-3-(trifluoromethyl)phenyl)-4-(pyridin-3-yl)thiazol-2-amine]: the EC50 was below 1 µM.

In the case of `CCCCCCCCc1ccc(Nc2nc(-c3ccccc3)c(CC(=O)O)s2)cc1C(F)(F)F` [Cmp 219, 2-(2-(4-octyl-3-(trifluoromethyl)phenylamino)-4-phenylthiazol-5-yl)acetic acid], the EC50 lay in the range of 1 to 10 µM.

On to `C/C=N/N(c1ccc(OCCCCCCCC)cc1)c1nc(-c2cccnc2)cs1` [Cmp 34, (E)-2-(2-ethylidene-1-(4-(octyloxy)phenyl)hydrazinyl)-4-(pyridin-3-yl)thiazole], for which the EC50 was below 1 µM.

Take `CCCCCCCCC1Cc2ccc(Nc3nc(-c4ccc(C)nc4)cs3)cc2O1` (stereo not shown) [Cmp 124, 4-(6-methylpyridin-3-yl)-N-(2-octyl-2,3-dihydrobenzofuran-6-yl)thiazol-2-amine]: the EC50 is below 1 µM.

For `CCCCCCCCOc1ccc(N(C)c2nc(-c3cccnc3)c(F)s2)cc1C(F)(F)F` [Cmp 159, 5-fluoro-N-methyl-N-(4-(octyloxy)-3-(trifluoromethyl)phenyl)-4-(pyridin-3-yl)thiazol-2-amine], the EC50 is below 1 µM.

Turning to `CCCCCOc1cc(Nc2nc(-c3cccnc3)c(F)s2)ccc1C(F)(F)F` [Cmp 79, 5-fluoro-N-(3-(pentyloxy)-4-(trifluoromethyl)phenyl)-4-(pyridin-3-yl)thiazol-2-amine], the EC50 was 1 to 10 µM.

For `c1ccc(CCc2cc3cc(Nc4nc(-c5cccnc5)cs4)ccc3o2)cc1` [Cmp 153, N-(2-phenethylbenzofuran-5-yl)-4-(pyridin-3-yl)thiazol-2-amine], the EC50 was below 1 µM.

Take `CCCOCCCCCc1ccc(Nc2nc(-c3cccnc3)c(F)s2)cc1C(F)(F)F` [Cmp 192, 5-fluoro-N-(4-(5-propoxypentyl)-3-(trifluoromethyl)phenyl)-4-(pyridin-3-yl)thiazol-2-amine]: the EC50 was below 1 µM.

For `CCCCCCCCOc1ccc(Nc2nc(-c3cccnc3)cs2)cc1C(N)=O` [Cmp 156, 2-(octyloxy)-5-(4-(pyridin-3-yl)thiazol-2-ylamino)benzamide], the EC50 was below 1 µM.

For the molecule `CCCCCCCCOc1ccc(Nc2nc(-c3ccncc3)c(F)s2)cc1C(F)(F)F` [Cmp 166, 5-fluoro-N-(4-(octyloxy)-3-(trifluoromethyl)phenyl)-4-(pyridin-4-yl)thiazol-2-amine], the EC50 was below 1 µM.

`Fc1sc(Nc2ccc(Oc3ccc(Cl)cc3)c(C(F)(F)F)c2)nc1-c1cccnc1` [Cmp 97, N-(4-(4-chlorophenoxy)-3-(trifluoromethyl)phenyl)-5-fluoro-4-(pyridin-3-yl)thiazol-2-amine]: the EC50 was below 1 µM.

In the case of `CCCCCOc1cc(Nc2nc(-c3cccnc3)cs2)ccc1C` [Cmp 26, N-(4-methyl-3-(pentyloxy)phenyl)-4-(pyridin-3-yl)thiazol-2-amine], the EC50 is below 1 µM.

With `CCCCCCCCc1cc2cc(Nc3nc(-c4cccnc4)cs3)ccc2o1` [Cmp 106, N-(2-octylbenzofuran-5-yl)-4-(pyridin-3-yl)thiazol-2-amine], the EC50 is below 1 µM.

Turning to `CC(=O)c1cc(Nc2nc(-c3cccnc3)c(F)s2)ccc1Oc1ccccc1` [Cmp 81, 1-(5-(5-fluoro-4-(pyridin-3-yl)thiazol-2-ylamino)-2-phenoxyphenyl)ethanone], the EC50 is below 1 µM.

As to `CCCCCCCCc1cc2cc(Nc3nc(-c4cccnc4)c(F)s3)ccc2o1` [Cmp 128, 5-fluoro-N-(2-octylbenzofuran-5-yl)-4-(pyridin-3-yl)thiazol-2-amine], the EC50 is below 1 µM.

For the molecule `CCCCCCCCOc1ccc(N(N)c2nc(-c3cccnc3)c(F)s2)cc1C(F)(F)F` [Cmp 120, 5-fluoro-2-(1-(4-(octyloxy)-3-(trifluoromethyl)phenyl)hydrazinyl)-4-(pyridin-3-yl)thiazole], the EC50 is below 1 µM.

Turning to `CCCCCCCCC1Cc2ccc(Nc3nc(-c4cccnc4)cs3)cc2O1` (stereo not shown) [Cmp 123, N-(2-octyl-2,3-dihydrobenzofuran-6-yl)-4-(pyridin-3-yl)thiazol-2-amine], the EC50 is below 1 µM.

For `CCCCCCc1ccc(Nc2nc(-c3cccnc3)c(F)s2)cc1C(F)(F)F` [Cmp 112], the EC50 was below 1 µM.

As to `CN(C)c1ccc(CCCCOc2ccc(Nc3nc(-c4cccnc4)cs3)cc2C(F)(F)F)cc1` [Cmp 89, N-(4-(4-(4-(dimethylamino)phenyl)butoxy)-3-(trifluoromethyl)phenyl)-4-(pyridin-3-yl)thiazol-2-amine], the EC50 was below 1 µM.

On to `Fc1sc(Nc2ccc(Oc3ccccc3)c(C(F)(F)F)c2)nc1-c1cccnc1` [Cmp 70, 5-fluoro-N-(4-phenoxy-3-(trifluoromethyl)phenyl)-4-(pyridin-3-yl)thiazol-2-amine], for which the EC50 is below 1 µM.

Consider `CCCCCCCCOc1ccc(Nc2nc(-c3cnc(OC)nc3)c(CN(C)C)s2)cc1C(F)(F)F` [Cmp 121, 5-((dimethylamino)methyl)-4-(2-methoxypyrimidin-5-yl)-N-(4-(octyloxy)-3-(trifluoromethyl)phenyl)thiazol-2-amine], for which the EC50 is 1 to 10 µM.

`Cc1ccc(Nc2nc(-c3cccnc3)cs2)cc1OCCOc1ccccc1` [Cmp 37, N-(4-methyl-3-(2-phenoxyethoxy)phenyl)-4-(pyridin-3-yl)thiazol-2-amine]: the EC50 is below 1 µM.

Take `Fc1ccc(CCCCCc2ccc(Nc3nc(-c4cccnc4)cs3)cc2C(F)(F)F)cc1` [Cmp 216, N-(4-(5-(4-fluorophenyl)pentyl)-3-(trifluoromethyl)phenyl)-4-(pyridin-3-yl)thiazol-2-amine]: the EC50 was below 1 µM.

For the origin of these results see US8183263B2 (priority 2007, dated 2012).
